Experimental findings from US20090300848A1, “EPOXIDE-BASED TANNAGE SYSTEM” (BLC LEATHER TECHNOLOGY CENTRE LTD, priority 2006, published 2009) are described below.

This series is described as follows: solubility in aqueous phase. It counts as physicochemical. Particulars: water, 25° C. The text has this: By having an aromatic-like, heterocyclic triazine nucleus, it is believed to impart a network structure into the protein during tanning, giving better thermal stability.

≈ marks a conversion by molar mass, not a printed value.

As usually defined, the solubility is the dissolved amount per volume that the medium holds. High values mean much dissolved substance, low ones little dissolved substance. As for `O=c1n(CC2CO2)c(=O)n(CC2CO2)c(=O)n1CC1CO1` (stereo not shown) [TGIC, trigycidyl isocyanurate], the solubility was found to be 10000 µg/mL (≈ 33.6 mM).
